Assays:
[1] = cited from earlier work
[2] = Bioconversion in mouse brain S9 subcellular fraction; format: in vitro ADME
[3] = 5 h incubation in vitro; previous study; cited from earlier work
[4] = tested on: peroxidase activity of cyclooxygenases (COX); assay: Peroxidase activity of cyclooxygenases in cell lysates (fluorometric kit); format: biochemical; conditions: 100 μM; 30 min; assay does not differentiate COX from LOX
Protocol: A coupled oxidation-reduction fluorometric assay was used to assess the inhibitory effect of compounds (100 μM) together with positive controls on the peroxidase activity of cyclooxygenases (COX) (ab204699 Cyclooxygenase Activity Assay Kit, Abcam, Cambridge, UK). The method has been done and validated according to the manufacturer's protocol. Briefly, studied compounds (100 μM) and the reaction mixture were incubated with the cell lysates at room temperature and the reaction was initiated by adding arachidonic acid/NaOH solution. The fluorescence was read in a kinetic mode after every 15 seconds for 30 minutes by the EnVision plate reader (EnVision, PerkinElmer, Inc., Waltham, MA, USA) at λex 535 nm and λem 587 nm.

NF-κB = assay: Total amount of NF-κB p65 (ELISA) in cells; format: cell-based, mouse; conditions: 100 μM; 24-96 h incubation
Protocol: Enzyme-Linked Immunosorbent Assay (ELISA) kits were used (mTOR SimpleStep ELISA Kit and NFκB p65 Total SimpeStep ELISA Kit, Abcam, Cambridge, UK) to quantify mammalian (or mechanistic) target of rapamycin (mTOR) and transcription factor NF-κB amounts, respectively. […] The control wells were treated with the solvent only (0.5% DMSO). Cells were solubilized using the provided extraction buffer with the kit, incubated on ice for 20 minutes and centrifuged at 18 000 × g for 20 min at 4°C. The supernatants were stored at -80°C till the day of the analysis. Standards and samples were then analyzed following the manufacturer's protocol (ELISA sandwich method) and by reading the absorbance with the EnVision plate reader (EnVision, PerkinElmer, Inc., Waltham, MA, USA) at 450 nm. The results were analyzed as pmol of formed mTOR or NF-κB per mL.

[5] = tested on: LPS-induced lipid peroxidation in primary astrocytes; assay: LPS-induced lipid peroxidation (malondialdehyde formation) in primary astrocytes; format: cell-based, mouse; conditions: 50 μM compound with 0.1 μg/mL LPS, 24 h
Protocol: Primary astrocytes were seeded at the density of 2 × 10^5 cells/well onto collagen-coated 6-well plates. The cells were used for the experiments 2 days after seeding, and first, they were treated with 0.1 μg/mL lipopolysaccharide (LPS) in prewarmed HBSS buffer (250 μL) at 37°C for 24 h. The control cells were treated with prewarmed HBSS buffer only. The ability of compound to inhibit the oxidative stress was evaluated by adding FA (50 μM) or its derivatives 1-3 in prewarmed HBSS buffer (250 μL) together with LPS and incubating the cells at 37°C for 24 h. Tocopherol (vitamin E) was used as a positive control. […] The mixtures were then centrifuged at 10 000 × g for 10 min, and 50 μL of the supernatant was analyzed on a 96-well plate, each experiment as three technical replicates from three biological replicates. The fluorescence was read by the EnVision plate reader (EnVision, PerkinElmer, Inc., Waltham, MA, USA) at λex 532 nm and λem 553 nm. The amount of produced malondialdehyde (MDA) in each experiment was quantified from the standard curve; various amounts (1-800 μM) of MDA and thiobarbituric acid in water were incubated in a thermoshaker at 95°C for 1 h and analyzed simultaneously as duplicates with each studied batch. […] The results were analyzed as μmol of formed MDA per mg protein.

COc1cc(C=CC(=O)Oc2cccc(CC(N)C(=O)O)c2)ccc1O (stereo not drawn) [FA-derivative 3]
Bioconversion in human plasma ([1]; in vitro human data): rather insignificant
Human hepatic intrinsic clearance, times slower than in mouse ([1]; in vitro human data): 10 times
Stability in human plasma and liver S9 subcellular fraction, times more stable (than in mouse) ([1]; previous study): 10 times
Bioconversion in the presence of donepezil [2]: no bioconversion at all was observed
half-life [2]: ~3.58 h

COc1cc(C=CC(=O)NCc2cccc(CC(N)C(=O)O)c2)ccc1O (stereo not drawn) [FA-derivative 1]
FA released / stability in mouse brain S9 subcellular fraction [3]: remained intact

COc1cc(/C=C/C(=O)O)ccc1O [FA, trans-4-hydroxy-3-methoxycinnamic acid, reference compound]
Inhibition of peroxidase activity of COX enzymes [4]: inhibited the cellular peroxidase activity of COX enzymes

COc1cc(C=CC(=O)Nc2cccc(CC(N)C(=O)O)c2)ccc1O (stereo not drawn) [FA-derivative 2]
Effect on total NF-κB levels (NF-κB): did not exert any effects
MDA levels lower than in the control incubation [5]: approximately 12%
